Source: PubChem BioAssay AID1963871 (Molecular Pharmacology Branch, DTP, NCI, 2024)

Test system: KRAS-mutant PDC multicell tumor spheroid viability
Assay: Anticancer human tumor 521955-158-R2-J5-PDC patient-derived pancreatic carcinoma cell line growth inhibition [KRAS2]
Conditions: for IC50: curve of first compound; for viability, T/C: stronger effect = lower value
In short: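 KRAS-mutant tumor cells were grown as spheroids with HUVEC endothelial cells and human MSCs as stroma. Targeted agents were tested alone and with KRAS pathway inhibitors. Doses started at or near clinical Cmax, or 10 microM, descending half-log.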

[1] = second compound 0.1 µM, first compound 0.0316 µM
[2] = second compound 0.1 µM, first compound 0.1 µM
[3] = second compound 0.1 µM, first compound 0.316 µM
[4] = second compound 0.1 µM, first compound 1 µM
[5] = second compound 0.1 µM, first compound 3.16 µM
[6] = second compound 0.1 µM, first compound 10 µM
[7] = second compound 0.316 µM, first compound 0.0316 µM
[8] = second compound 0.316 µM, first compound 0.1 µM
[9] = second compound 0.316 µM, first compound 0.316 µM
[10] = second compound 0.316 µM, first compound 1 µM
[11] = second compound 0.316 µM, first compound 3.16 µM
[12] = second compound 0.316 µM, first compound 10 µM
[13] = second compound 1 µM, first compound 0.0316 µM
[14] = second compound 1 µM, first compound 0.1 µM
[15] = second compound 1 µM, first compound 0.316 µM
[16] = second compound 1 µM, first compound 1 µM
[17] = second compound 1 µM, first compound 3.16 µM
[18] = second compound 1 µM, first compound 10 µM
[19] = second compound 3.16 µM, first compound 0.0316 µM
[20] = second compound 3.16 µM, first compound 0.1 µM
[21] = second compound 3.16 µM, first compound 0.316 µM
[22] = second compound 3.16 µM, first compound 1 µM
[23] = second compound 3.16 µM, first compound 3.16 µM
[24] = second compound 3.16 µM, first compound 10 µM
[25] = second compound 10 µM, first compound 0.0316 µM
[26] = second compound 10 µM, first compound 0.1 µM
[27] = second compound 10 µM, first compound 0.316 µM
[28] = second compound 10 µM, first compound 1 µM
[29] = second compound 10 µM, first compound 3.16 µM
[30] = second compound 10 µM, first compound 10 µM
[31] = second compound 0.1 µM, first compound 0.01 µM
[32] = second compound 0.316 µM, first compound 0.01 µM
[33] = second compound 1 µM, first compound 0.01 µM
[34] = second compound 3.16 µM, first compound 0.01 µM
[35] = second compound 10 µM, first compound 0.01 µM
[36] = second compound 0.1 µM, first compound 0.00316 µM
[37] = second compound 0.316 µM, first compound 0.00316 µM
[38] = second compound 1 µM, first compound 0.00316 µM
[39] = second compound 3.16 µM, first compound 0.00316 µM
[40] = second compound 10 µM, first compound 0.00316 µM
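Further: viability read after seven days of drug exposure.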

| SMILES | IC50 (second compound 0.1 µM) [nM] | IC50 (second compound 0.316 µM) [nM] | IC50 (second compound 1 µM) [nM] | IC50 (second compound 3.16 µM) [nM] | IC50 (second compound 10 µM) [nM] | viability, T/C [1] [%] | viability, T/C [2] [%] | viability, T/C [3] [%] | viability, T/C [4] [%] | viability, T/C [7] [%] | viability, T/C [8] [%] | viability, T/C [9] [%] | viability, T/C [10] [%] | viability, T/C [13] [%] | viability, T/C [14] [%] | viability, T/C [15] [%] | viability, T/C [19] [%] | viability, T/C [20] [%] | viability, T/C [25] [%] | viability, T/C [26] [%] | other results |
| --- | --- | --- | --- | --- | --- | --- | --- | --- | --- | --- | --- | --- | --- | --- | --- | --- | --- | --- | --- | --- | --- |
| CC(C)NCC(C(=O)N1CCN(c2ncnc3c2C(C)CC3O)CC1)c1ccc(Cl)cc1 (stereo not given) + CC1OCC2(CCN(c3cnc(Sc4ccnc(N)c4Cl)c(N)n3)CC2)C1N | > 10000 | > 10000 | 1080 | 287 | 483 | 67.8 | 82.7 | 67.7 | 61.8 | 65.3 | 66.8 | 55.4 | 60.3 | 62 | 60.9 | 46.5 | 56.5 | 57.8 | 54.1 | 66.9 | viability, T/C [5]: 74.3%; viability, T/C [6]: 53.7%; viability, T/C [11]: 61.2%; viability, T/C [12]: 48.7%; viability, T/C [16]: 51.3%; viability, T/C [17]: 53.3%; viability, T/C [18]: 39.5%; viability, T/C [21]: 43.1%; viability, T/C [22]: 41.5%; viability, T/C [23]: 48.4%; viability, T/C [24]: 27.7%; viability, T/C [27]: 51.2%; viability, T/C [28]: 38%; viability, T/C [29]: 41.5%; viability, T/C [30]: 20.7% |
| CC1COCCN1c1cc(-c2ccnn2C)c2ccnc(-c3ccn[nH]3)c2n1 (stereo not given) + CC1OCC2(CCN(c3cnc(Sc4ccnc(N)c4Cl)c(N)n3)CC2)C1N | 18.3 | 16.1 | 13.2 | 13.9 | 10.6 | 27.6 | 7.87 | 9.44 | 14.9 | 25.4 | 6.51 | 8.34 | 12.3 | 29 | 7.13 | 7.87 | 25.4 | 7.05 | 27.4 | 7.9 | viability, T/C [31]: 75%; viability, T/C [5]: 16.7%; viability, T/C [32]: 67.2%; viability, T/C [11]: 17.1%; viability, T/C [33]: 56.6%; viability, T/C [16]: 11.1%; viability, T/C [17]: 17.2%; viability, T/C [34]: 59.9%; viability, T/C [21]: 7.79%; viability, T/C [22]: 10.5%; viability, T/C [23]: 16.8%; viability, T/C [35]: 51.3%; viability, T/C [27]: 8.11%; viability, T/C [28]: 11.4%; viability, T/C [29]: 15.6% |
| CCN1CCN(Cc2ccc(Nc3ncc(F)c(-c4cc(F)c5nc(C)n(C(C)C)c5c4)n3)nc2)CC1 + CC1OCC2(CCN(c3cnc(Sc4ccnc(N)c4Cl)c(N)n3)CC2)C1N | > 1000 | > 1000 | > 1000 | > 1000 | > 1000 | 59 | 61.5 | 73.7 | 66 | 55.2 | 57.2 | 75.5 | 61.4 | 58.2 | 60 | 62.2 | 60.9 | 60.8 | 63.5 | 61.7 | viability, T/C [36]: 72.4%; viability, T/C [31]: 87%; viability, T/C [37]: 66.5%; viability, T/C [32]: 70.6%; viability, T/C [38]: 70.6%; viability, T/C [33]: 59.5%; viability, T/C [16]: 68.8%; viability, T/C [39]: 66.8%; viability, T/C [34]: 67.9%; viability, T/C [21]: 63.8%; viability, T/C [22]: 60.1%; viability, T/C [40]: 62.6%; viability, T/C [35]: 71.8%; viability, T/C [27]: 57.4%; viability, T/C [28]: 50.2% |
| CCNC(=O)CC1N=C(c2ccc(Cl)cc2)c2cc(OC)ccc2-n2c(C)nnc21 (stereo not given) + CC1OCC2(CCN(c3cnc(Sc4ccnc(N)c4Cl)c(N)n3)CC2)C1N | 289 | 172 | 127 | 132 | 92.9 | 71.5 | 71.2 | 47.3 | 33.8 | 76.3 | 61.1 | 36.9 | 29.7 | 66 | 51.5 | 40.4 | 65.8 | 52.2 | 60.7 | 47.8 | viability, T/C [5]: 26.5%; viability, T/C [6]: 28.7%; viability, T/C [11]: 23.6%; viability, T/C [12]: 22.6%; viability, T/C [16]: 25.7%; viability, T/C [17]: 19.6%; viability, T/C [18]: 20.8%; viability, T/C [21]: 40%; viability, T/C [22]: 23.5%; viability, T/C [23]: 20%; viability, T/C [24]: 20.4%; viability, T/C [27]: 35.7%; viability, T/C [28]: 20.6%; viability, T/C [29]: 15.9%; viability, T/C [30]: 16.9% |
| Cn1nccc1Nc1nccc(-c2cc3c(s2)C(C)(C)N(CCN2CCOCC2)C3=O)n1 + CC1OCC2(CCN(c3cnc(Sc4ccnc(N)c4Cl)c(N)n3)CC2)C1N | 493 | 485 | 490 | 602 | 427 | 94.1 | 70.9 | 58.5 | 41.5 | 69.9 | 62.1 | 58.4 | 38.5 | 73.6 | 66.9 | 57.5 | 71.4 | 63.1 | 50.9 | 56 | viability, T/C [5]: 25%; viability, T/C [6]: 19.6%; viability, T/C [11]: 25.4%; viability, T/C [12]: 15.6%; viability, T/C [16]: 38.7%; viability, T/C [17]: 24.7%; viability, T/C [18]: 15.9%; viability, T/C [21]: 63%; viability, T/C [22]: 40.4%; viability, T/C [23]: 23.3%; viability, T/C [24]: 18.4%; viability, T/C [27]: 57.9%; viability, T/C [28]: 36%; viability, T/C [29]: 27.3%; viability, T/C [30]: 18.2% |
| Cn1ncnc1[C@H]1c2n[nH]c(=O)c3cc(F)cc(c23)N[C@@H]1c1ccc(F)cc1 + CC1OCC2(CCN(c3cnc(Sc4ccnc(N)c4Cl)c(N)n3)CC2)C1N | > 100 | > 100 | 3.6 | < 0.316 | < 0.316 | 63.7 | 53.3 |  |  | 46.6 | 55.1 |  |  | 45.4 | 51.4 |  | 41.9 | 41.8 | 37.9 | 40 | viability, T/C (second compound 0.1 µM, first compound 0.000316 µM): 72.5%; viability, T/C (second compound 0.1 µM, first compound 0.001 µM): 75%; viability, T/C [36]: 63.8%; viability, T/C [31]: 63.6%; viability, T/C (second compound 0.316 µM, first compound 0.000316 µM): 58%; viability, T/C (second compound 0.316 µM, first compound 0.001 µM): 58.2%; viability, T/C [37]: 61.5%; viability, T/C [32]: 55.6%; viability, T/C (second compound 1 µM, first compound 0.000316 µM): 56.7%; viability, T/C (second compound 1 µM, first compound 0.001 µM): 53.4%; viability, T/C [38]: 52.7%; viability, T/C [33]: 45%; viability, T/C (second compound 3.16 µM, first compound 0.000316 µM): 46.4%; viability, T/C (second compound 3.16 µM, first compound 0.001 µM): 44.4%; viability, T/C [39]: 46.5%; viability, T/C [34]: 44.5%; viability, T/C (second compound 10 µM, first compound 0.000316 µM): 43.6%; viability, T/C (second compound 10 µM, first compound 0.001 µM): 47.5%; viability, T/C [40]: 46.5%; viability, T/C [35]: 38.5% |
